Measured values taken from patent US10519152B2, “Compounds and their use in treating cancer” (AstraZeneca AB, priority 2017, dated 2019).

Target: T1, Estrogen Receptor (ERα) in MCF-7 human ductal carcinoma breast cell line (Homo sapiens, UniProt P03372)
T1 construct: endogenous in cells; host or cells: MCF-7
T1 sequence (P03372 1-595): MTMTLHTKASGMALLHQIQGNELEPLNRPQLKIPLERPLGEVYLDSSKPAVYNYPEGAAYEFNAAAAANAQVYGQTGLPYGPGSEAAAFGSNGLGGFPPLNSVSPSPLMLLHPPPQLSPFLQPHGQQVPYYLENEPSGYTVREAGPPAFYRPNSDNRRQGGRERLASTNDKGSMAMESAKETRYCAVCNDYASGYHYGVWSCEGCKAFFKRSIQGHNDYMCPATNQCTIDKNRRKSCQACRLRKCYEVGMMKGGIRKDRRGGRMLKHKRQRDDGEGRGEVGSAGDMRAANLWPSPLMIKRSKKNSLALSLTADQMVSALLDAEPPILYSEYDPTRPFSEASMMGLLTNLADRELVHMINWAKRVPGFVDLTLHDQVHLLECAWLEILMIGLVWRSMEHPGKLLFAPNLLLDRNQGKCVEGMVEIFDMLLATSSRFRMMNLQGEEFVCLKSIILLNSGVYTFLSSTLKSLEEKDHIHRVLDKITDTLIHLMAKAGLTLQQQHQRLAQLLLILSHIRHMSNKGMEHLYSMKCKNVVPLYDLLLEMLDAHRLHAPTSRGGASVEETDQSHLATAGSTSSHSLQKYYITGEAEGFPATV
Test: MCF-7 ER degradation assay (cell based immuno-fluorescence)
Settings: MCF-7 cells; for ER degradation ≥ 90% at 0.3 μM: ER degradation by fulvestrant at 0.3 μM is defined as 100%; for DC50: 18-22 hours incubation, 50% reduction of ERα expression, single experiment or average of two or more, read-out: MCF-7 ER degradation IC50
Experimental: MCF-7 ER Degradation Assay
The ability of compounds to down-regulate Estrogen Receptor (ER) numbers was assessed in a cell based immuno-fluorescence assay using the MCF-7 human ductal carcinoma breast cell line. MCF-7 cells were revived directly from a cryovial (approx 5×10^6 cells) in Assay Medium (phenol red free Dulbecco's Modified Eagle's medium (DMEM); Sigma D5921) containing 2 mM L-Glutamine and 5% (v/v) Charcoal/Dextran treated foetal calf serum. Cells were syringed once using a sterile 18 G×1.5 inch (1.2×40 mm) broad gauge needle and cell density was measured using a Coulter Counter (Beckman). Cells were further diluted in Assay Medium to a density of 3.75×10^4 cells per mL and 40 μL per well added to transparent bottomed, black, tissue culture-treated 384 well plates (Costar, No. 3712) using a Thermo Scientific Matrix WellMate or Thermo Multidrop. Following cell seeding, plates were incubated overnight at 37° C., 5% CO2 (Liconic carousel incubator). Test data was generated using the LabCyte Echo™ model 555 compound reformatter which is part of an automated workcell (Integrated Echo 2 workcell). Compound stock solutions (10 mM) of the test compounds were used to generate a 384 well compound dosing plate (Labcyte P-05525-CV1). 40 μL of each of the 10 mM compound stock solutions was dispensed into the first quadrant well and then 1:100 step-wise serial dilutions in DMSO were performed using a Hydra II (MATRIX UK) liquid handling unit to give 40 μL of diluted compound into quadrant wells 2 (0.1 mM), 3 (1 μM) and 4 (0.01 μM), respectively. 40 μL of DMSO added to wells in row P on the source plate allowed for DMSO normalisation across the dose range. To dose the control wells 40 μL of DMSO was added to row O1 and 40 μL of 100 μM fulvestrant in DMSO was added to row O3 on the compound source plate.
The Echo uses acoustic technology to perform direct microplate-to-microplate transfers of DMSO compound solutions to assay plates. The system can be programmed to transfer volumes as low as 2.5 nL in multiple increments between microplates and in so doing generates a serial dilution of compound in the assay plate which is then back-filled to normalise the DMSO concentration across the dilution range. Compounds were dispensed onto the cell plates with a compound source plate prepared as above producing a 12 point duplicate […] dose range with 3-fold dilutions and one final 10-fold dilution using the Integrated Echo 2 workcell. The maximum signal control wells were dosed with DMSO to give a final concentration of 0.3%, and the minimum signal control wells were dosed with fulvestrant to give a final concentration of 100 nM accordingly. Plates were further incubated for 18-22 hours at 37° C., 5% CO2 and then fixed by the addition of 20 μL of 11.1% (v/v) formaldehyde solution (in phosphate buffered saline (PBS)) giving a final formaldehyde concentration of 3.7% (v/v). Cells were fixed at room temperature for 20 mins before being washed two times with 250 μL PBS/Proclin (PBS with a Biocide preservative) using a BioTek platewasher, 40 μL of PBS/Proclin was then added to all wells and the plates stored at 4° C. The fixing method described above was carried out on the Integrated Echo 2 workcell. Immunostaining was performed using an automated AutoElisa workcell. The PBS/Proclin was aspirated from all wells and the cells permeabilised with 40 μL PBS containing 0.5% Tween™ 20 (v/v) for 1 hour at room temperature. The plates were washed three times in 250 μL of PBS/0.05% (v/v) Tween 20 with Proclin (PBST with a Biocide preservative) and then 20 μL of ERα (SP1) Rabbit monoclonal antibody (Thermofisher) 1:1000 in PBS/Tween™/3% (w/v) Bovine Serum Albumin was added. The plates were incubated overnight at 4° C. (Liconic carousel incubator) and then washed three times in 250 μL of PBS/0.05% (v/v) Tween™ 20 with Proclin (PBST). […]

SMILES	ER degradation ≥ 90% at 0.3 μM	DC50 [pM]
Cc1ncsc1-c1ccc(CNC(=O)[C@@H]2C[C@@H](O)CN2C(=O)[C@@H](NC(=O)COCc2ccc(COc3cc(F)c([C@@H]4c5[nH]c6ccccc6c5C[C@@H](C)N4CC(C)(C)F)c(F)c3)cc2)C(C)(C)C)cc1 [Example 19, (2S,4R)-1-((S)-2-(2-((4-((3,5-difluoro-4-((1R,3R)-2-(2-fluoro-2-methylpropyl)-3-methyl-2,3,4,9-tetrahydro-1H-pyrido[3,4-b]indol-1-yl)phenoxy)methyl)benzyl)oxy)acetamido)-3,3-dimethylbutanoyl)-4-hydroxy-N-(4-(4-methylthiazol-5-yl)benzyl)pyrrolidine-2-carboxamide]	••	3200
Cc1ncsc1-c1ccc(CNC(=O)[C@@H]2C[C@@H](O)CN2C(=O)[C@@H](NC(=O)C2(OCCCOCCCOc3cc(F)c([C@@H]4c5[nH]c6ccccc6c5C[C@@H](C)N4CC(C)(C)F)c(F)c3)CC2)C(C)(C)C)cc1 [Example 135, (2S,4R)-1-((S)-2-(1-(3-(3-(3,5-Difluoro-4-((1R,3R)-2-(2-fluoro-2-methylpropyl)-3-methyl-2,3,4,9-tetrahydro-1H-pyrido[3,4-b]indol-1-yl)phenoxy)propoxy)propoxy)cyclopropane-1-carboxamido)-3,3-dimethylbutanoyl)-4-hydroxy-N-(4-(4-methylthiazol-5-yl)benzyl)pyrrolidine-2-carboxamide]	•	
Cc1ncsc1-c1ccc(CNC(=O)[C@@H]2C[C@@H](O)CN2C(=O)[C@@H](NC(=O)COCC(F)(F)COCCCCCOc2cc(F)c([C@@H]3c4[nH]c5ccccc5c4C[C@@H](C)N3CC(C)(C)F)c(F)c2)C(C)(C)C)cc1 [Example 126, (2S,4R)-1-((S)-2-(2-(3-((5-(3,5-Difluoro-4-((1R,3R)-2-(2-fluoro-2-methylpropyl)-3-methyl-2,3,4,9-tetrahydro-1H-pyrido[3,4-b]indol-1-yl)phenoxy)pentyl)oxy)-2,2-difluoropropoxy)acetamido)-3,3-dimethylbutanoyl)-4-hydroxy-N-(4-(4-methylthiazol-5-yl)benzyl)pyrrolidine-2-carboxamide]	•	1800

Continued by falling DC50, values first:

ER degradation ≥ 90% at 0.3 μM	DC50 [pM]	SMILES
••	800	Cc1ncsc1-c1ccc(CNC(=O)[C@@H]2C[C@@H](O)CN2C(=O)[C@@H](NC(=O)CCCCCCNC(=O)/C=C/c2cc(F)c([C@@H]3c4[nH]c5ccccc5c4C[C@@H](C)N3CC(C)(C)F)c(F)c2)C(C)(C)C)cc1 [Example 59, (2S,4R)-1-((S)-2-(7-((E)-3-(3,5-difluoro-4-((1R,3R)-2-(2-fluoro-2-methylpropyl)-3-methyl-2,3,4,9-tetrahydro-1H-pyrido[3,4-b]indol-1-yl)phenyl)acrylamido)heptanamido)-3,3-dimethylbutanoyl)-4-hydroxy-N-(4-(4-methylthiazol-5-yl)benzyl)pyrrolidine-2-carboxamide, Trifluoroacetic Acid]
•	800	Cc1ncsc1-c1ccc(CNC(=O)[C@@H]2C[C@@H](O)CN2C(=O)[C@@H](NC(=O)COC[C@@H]2CC2COCCOc2cc(F)c([C@@H]3c4[nH]c5ccccc5c4C[C@@H](C)N3CC(C)(C)F)c(F)c2)C(C)(C)C)cc1 (single isomer, unassigned) [Example 124, (2S,4R)-1-[(2S)-2-[[2-[[(1R*2S*)-2-[2-[3,5-Difluoro-4-[(1R,3R)-2-(2-fluoro-2-methyl-propyl)-3-methyl-1,3,4,9-tetrahydropyrido[3,4-b]indol-1-yl]phenoxy]ethoxymethyl]cyclopropyl]methoxy]acetyl]amino]-3,3-dimethyl-butanoyl]-4-hydroxy-N-[[4-(4-methylthiazol-5-yl)phenyl]methyl]pyrrolidine-2-carboxamide]
•	500	Cc1ncsc1-c1ccc(CNC(=O)[C@@H]2C[C@@H](O)CN2C(=O)[C@@H](NC(=O)COC[C@@H]2CC2COCCOc2cc(F)c([C@@H]3c4[nH]c5ccccc5c4C[C@@H](C)N3CC(C)(C)F)c(F)c2)C(C)(C)C)cc1 (single isomer, unassigned) [Example 123, (2S,4R)-1-[(2S)-2-[[2-[[(1R*2S*)-2-[2-[3,5-Difluoro-4-[(R,3R)-2-(2-fluoro-2-methyl-propyl)-3-methyl-1,3,4,9-tetrahydropyrido[3,4-b]indol-1-yl]phenoxy]ethoxymethyl]cyclopropyl]methoxy]acetyl]amino]-3,3-dimethyl-butanoyl]-4-hydroxy-N-[[4-(4-methylthiazol-5-yl)phenyl]methyl]pyrrolidine-2-carboxamide]
